# In article PMC10905675, “INX-315, a Selective CDK2 Inhibitor, Induces Cell Cycle Arrest and Senescence in Solid Tumors” (Cancer Discovery, 2023):
# Legend:
# Assay in all cases: SelectScreen ZLYTE
# Type in all cases: biochemical
# Conditions in all cases: INX-0315 at 100nM
# CDK17/cyclin Y = target: T1, CDK17/cyclin Y (Homo sapiens, UniProt Q00537)
# T1 construct: purchased Thermo Fisher Scientific SelectScreen (plus Nanosyn / Reaction Biology for CDK/cyclin lines)
# Method in brief: (§1)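 Screening in two stages: one concentration of inhibitor (100 nmol/L; 1% DMSO), then a ten-point series from 1 µmol/L to 0.0495 nmol/L. Conditions were those fixed in advance by the provider.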
# PLK3 = target: T2, PLK3 (Homo sapiens, UniProt Q9H4B4)
# T2 construct: purchased Thermo Fisher Scientific SelectScreen (plus Nanosyn / Reaction Biology for CDK/cyclin lines)
# Method in brief: as §1
# ABL1 F317L = target: T3, ABL1 F317L (Homo sapiens, UniProt P00519, F317L)
# T3 construct: purchased Thermo Fisher Scientific SelectScreen (plus Nanosyn / Reaction Biology for CDK/cyclin lines)
# Method in brief: as §1
# MAPK12 (p38 gamma) = target: T4, MAPK12 (p38 gamma) (Homo sapiens, UniProt P53778)
# T4 construct: purchased Thermo Fisher Scientific SelectScreen (plus Nanosyn / Reaction Biology for CDK/cyclin lines)
# Method in brief: as §1
# SGKL (SGK3) = target: T5, SGKL (SGK3) (Homo sapiens, UniProt Q96BR1)
# T5 construct: purchased Thermo Fisher Scientific SelectScreen (plus Nanosyn / Reaction Biology for CDK/cyclin lines)
# Method in brief: as §1
# TNK1 = target: T6, TNK1 (Homo sapiens, UniProt Q13470)
# T6 construct: purchased Thermo Fisher Scientific SelectScreen (plus Nanosyn / Reaction Biology for CDK/cyclin lines)
# Method in brief: as §1
# PKN1 (PRK1) = target: T7, PKN1 (PRK1) (Homo sapiens, UniProt Q16512)
# T7 construct: purchased Thermo Fisher Scientific SelectScreen (plus Nanosyn / Reaction Biology for CDK/cyclin lines)
# Method in brief: as §1
# CSNK2A2 (CK2 alpha 2) = target: T8, CSNK2A2 (CK2 alpha 2) (Homo sapiens, UniProt P19784)
# T8 construct: purchased Thermo Fisher Scientific SelectScreen (plus Nanosyn / Reaction Biology for CDK/cyclin lines)
# Method in brief: as §1
# SRC = target: T9, SRC (Homo sapiens, UniProt P12931)
# T9 construct: purchased Thermo Fisher Scientific SelectScreen (plus Nanosyn / Reaction Biology for CDK/cyclin lines)
# Method in brief: as §1
# CDK18/cyclin Y = target: T10, CDK18/cyclin Y (Homo sapiens, UniProt Q07002)
# T10 construct: purchased Thermo Fisher Scientific SelectScreen (plus Nanosyn / Reaction Biology for CDK/cyclin lines)
# Method in brief: as §1
# NEK2 = target: T11, NEK2 (Homo sapiens, UniProt P51955)
# T11 construct: purchased Thermo Fisher Scientific SelectScreen (plus Nanosyn / Reaction Biology for CDK/cyclin lines)
# Method in brief: as §1
# MAPKAPK3 = target: T12, MAPKAPK3 (Homo sapiens, UniProt Q16644)
# T12 construct: purchased Thermo Fisher Scientific SelectScreen (plus Nanosyn / Reaction Biology for CDK/cyclin lines)
# Method in brief: as §1
# EGFR (ErbB1) L858R = target: T13, EGFR (ErbB1) L858R (Homo sapiens, UniProt P00533, L858R)
# T13 construct: purchased Thermo Fisher Scientific SelectScreen (plus Nanosyn / Reaction Biology for CDK/cyclin lines)
# Method in brief: as §1
# PAK4 = target: T14, PAK4 (Homo sapiens, UniProt O96013)
# T14 construct: purchased Thermo Fisher Scientific SelectScreen (plus Nanosyn / Reaction Biology for CDK/cyclin lines)
# Method in brief: as §1
# SRPK1 = target: T15, SRPK1 (Homo sapiens, UniProt Q96SB4)
# T15 construct: purchased Thermo Fisher Scientific SelectScreen (plus Nanosyn / Reaction Biology for CDK/cyclin lines)
# Method in brief: as §1
# CLK2 = target: T16, CLK2 (Homo sapiens, UniProt P49760)
# T16 construct: purchased Thermo Fisher Scientific SelectScreen (plus Nanosyn / Reaction Biology for CDK/cyclin lines)
# Method in brief: as §1
# STK23 (MSSK1) = target: T17, STK23 (MSSK1) (Homo sapiens, UniProt Q9UPE1)
# T17 construct: purchased Thermo Fisher Scientific SelectScreen (plus Nanosyn / Reaction Biology for CDK/cyclin lines)
# Method in brief: as §1
# AURKA (Aurora A) = target: T18, AURKA (Aurora A) (Homo sapiens, UniProt O14965)
# T18 construct: purchased Thermo Fisher Scientific SelectScreen (plus Nanosyn / Reaction Biology for CDK/cyclin lines)
# Method in brief: as §1
# MAPK8 (JNK1) = target: T19, MAPK8 (JNK1) (Homo sapiens, UniProt P45983)
# T19 construct: purchased Thermo Fisher Scientific SelectScreen (plus Nanosyn / Reaction Biology for CDK/cyclin lines)
# Method in brief: as §1
# GRK4 = target: T20, GRK4 (Homo sapiens, UniProt P32298)
# T20 construct: purchased Thermo Fisher Scientific SelectScreen (plus Nanosyn / Reaction Biology for CDK/cyclin lines)
# Method in brief: as §1
# TYK2 = target: T21, TYK2 (Homo sapiens, UniProt P29597)
# T21 construct: purchased Thermo Fisher Scientific SelectScreen (plus Nanosyn / Reaction Biology for CDK/cyclin lines)
# Method in brief: as §1
# MAP2K1 (MEK1) = target: T22, MAP2K1 (MEK1) (Homo sapiens, UniProt Q02750)
# T22 construct: purchased Thermo Fisher Scientific SelectScreen (plus Nanosyn / Reaction Biology for CDK/cyclin lines)
# Method in brief: as §1
# STK24 (MST3) = target: T23, STK24 (MST3) (Homo sapiens, UniProt Q9Y6E0)
# T23 construct: purchased Thermo Fisher Scientific SelectScreen (plus Nanosyn / Reaction Biology for CDK/cyclin lines)
# Method in brief: as §1
# LCK = target: T24, LCK (Homo sapiens, UniProt P06239)
# T24 construct: purchased Thermo Fisher Scientific SelectScreen (plus Nanosyn / Reaction Biology for CDK/cyclin lines)
# Method in brief: as §1
# PRKG2 (PKG2) = target: T25, PRKG2 (PKG2) (Homo sapiens, UniProt Q13237)
# T25 construct: purchased Thermo Fisher Scientific SelectScreen (plus Nanosyn / Reaction Biology for CDK/cyclin lines)
# Method in brief: as §1
# PAK2 (PAK65) = target: T26, PAK2 (PAK65) (Homo sapiens, UniProt Q13177)
# T26 construct: purchased Thermo Fisher Scientific SelectScreen (plus Nanosyn / Reaction Biology for CDK/cyclin lines)
# Method in brief: as §1
# TEK (TIE2) Y897S = target: T27, TEK (TIE2) Y897S (Homo sapiens, UniProt Q02763, Y897S)
# T27 construct: purchased Thermo Fisher Scientific SelectScreen (plus Nanosyn / Reaction Biology for CDK/cyclin lines)
# Method in brief: as §1
# DCAMKL1 (DCLK1) = target: T28, DCAMKL1 (DCLK1) (Homo sapiens, UniProt O15075)
# T28 construct: purchased Thermo Fisher Scientific SelectScreen (plus Nanosyn / Reaction Biology for CDK/cyclin lines)
# Method in brief: as §1
# IKBKB (IKK beta) = target: T29, IKBKB (IKK beta) (Homo sapiens, UniProt O14920)
# T29 construct: purchased Thermo Fisher Scientific SelectScreen (plus Nanosyn / Reaction Biology for CDK/cyclin lines)
# Method in brief: as §1
# GRK5 = target: T30, GRK5 (Homo sapiens, UniProt P34947)
# T30 construct: purchased Thermo Fisher Scientific SelectScreen (plus Nanosyn / Reaction Biology for CDK/cyclin lines)
# Method in brief: as §1
# EPHA1 = target: T31, EPHA1 (Homo sapiens, UniProt P21709)
# T31 construct: purchased Thermo Fisher Scientific SelectScreen (plus Nanosyn / Reaction Biology for CDK/cyclin lines)
# Method in brief: as §1
# PDGFRA T674I = target: T32, PDGFRA T674I (Homo sapiens, UniProt P16234, T674I)
# T32 construct: purchased Thermo Fisher Scientific SelectScreen (plus Nanosyn / Reaction Biology for CDK/cyclin lines)
# Method in brief: as §1
# MAPK10 (JNK3) = target: T33, MAPK10 (JNK3) (Homo sapiens, UniProt P53779)
# T33 construct: purchased Thermo Fisher Scientific SelectScreen (plus Nanosyn / Reaction Biology for CDK/cyclin lines)
# Method in brief: as §1
# HCK = target: T34, HCK (Homo sapiens, UniProt P08631)
# T34 construct: purchased Thermo Fisher Scientific SelectScreen (plus Nanosyn / Reaction Biology for CDK/cyclin lines)
# Method in brief: as §1
# MET (cMet) = target: T35, MET (cMet) (Homo sapiens, UniProt P08581)
# T35 construct: purchased Thermo Fisher Scientific SelectScreen (plus Nanosyn / Reaction Biology for CDK/cyclin lines)
# Method in brief: as §1
# SBK1 = target: T36, SBK1 (Homo sapiens, UniProt Q52WX2)
# T36 construct: purchased Thermo Fisher Scientific SelectScreen (plus Nanosyn / Reaction Biology for CDK/cyclin lines)
# Method in brief: as §1
# EGFR (ErbB1) = target: T37, EGFR (ErbB1) (Homo sapiens, UniProt P00533)
# T37 construct: purchased Thermo Fisher Scientific SelectScreen (plus Nanosyn / Reaction Biology for CDK/cyclin lines)
# Method in brief: as §1
# MELK = target: T38, MELK (Homo sapiens, UniProt Q14680)
# T38 construct: purchased Thermo Fisher Scientific SelectScreen (plus Nanosyn / Reaction Biology for CDK/cyclin lines)
# Method in brief: as §1
# T23 sequence (Q9Y6E0 whole entry): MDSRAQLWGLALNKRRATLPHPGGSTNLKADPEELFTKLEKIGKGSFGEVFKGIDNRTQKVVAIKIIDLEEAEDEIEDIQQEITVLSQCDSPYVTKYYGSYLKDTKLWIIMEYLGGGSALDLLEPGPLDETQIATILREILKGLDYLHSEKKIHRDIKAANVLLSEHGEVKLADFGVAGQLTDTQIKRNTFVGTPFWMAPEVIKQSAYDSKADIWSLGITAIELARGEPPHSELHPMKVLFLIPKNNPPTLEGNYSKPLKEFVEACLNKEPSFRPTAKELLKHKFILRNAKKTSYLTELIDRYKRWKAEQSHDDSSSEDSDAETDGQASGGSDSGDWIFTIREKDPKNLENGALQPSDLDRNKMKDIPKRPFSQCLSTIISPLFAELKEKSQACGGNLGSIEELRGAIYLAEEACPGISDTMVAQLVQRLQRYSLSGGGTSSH
# T15 sequence (Q96SB4 whole entry): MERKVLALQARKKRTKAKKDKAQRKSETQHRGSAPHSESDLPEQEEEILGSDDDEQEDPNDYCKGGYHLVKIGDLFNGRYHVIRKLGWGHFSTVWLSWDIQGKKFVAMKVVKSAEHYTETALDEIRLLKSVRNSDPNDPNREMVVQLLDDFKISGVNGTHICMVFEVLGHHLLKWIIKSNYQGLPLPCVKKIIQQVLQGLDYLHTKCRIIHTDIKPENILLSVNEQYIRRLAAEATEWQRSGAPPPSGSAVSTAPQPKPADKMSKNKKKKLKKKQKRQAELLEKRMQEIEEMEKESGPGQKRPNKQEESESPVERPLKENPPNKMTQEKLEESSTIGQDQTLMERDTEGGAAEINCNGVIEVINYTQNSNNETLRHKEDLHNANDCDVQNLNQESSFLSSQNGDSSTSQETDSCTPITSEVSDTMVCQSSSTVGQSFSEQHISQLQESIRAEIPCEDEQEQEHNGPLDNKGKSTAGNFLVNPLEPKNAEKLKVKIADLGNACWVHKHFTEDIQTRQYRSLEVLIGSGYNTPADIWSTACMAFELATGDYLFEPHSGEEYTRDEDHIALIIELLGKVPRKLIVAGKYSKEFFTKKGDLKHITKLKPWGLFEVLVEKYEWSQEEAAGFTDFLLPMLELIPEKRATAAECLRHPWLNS
# T33 sequence (P53779 whole entry): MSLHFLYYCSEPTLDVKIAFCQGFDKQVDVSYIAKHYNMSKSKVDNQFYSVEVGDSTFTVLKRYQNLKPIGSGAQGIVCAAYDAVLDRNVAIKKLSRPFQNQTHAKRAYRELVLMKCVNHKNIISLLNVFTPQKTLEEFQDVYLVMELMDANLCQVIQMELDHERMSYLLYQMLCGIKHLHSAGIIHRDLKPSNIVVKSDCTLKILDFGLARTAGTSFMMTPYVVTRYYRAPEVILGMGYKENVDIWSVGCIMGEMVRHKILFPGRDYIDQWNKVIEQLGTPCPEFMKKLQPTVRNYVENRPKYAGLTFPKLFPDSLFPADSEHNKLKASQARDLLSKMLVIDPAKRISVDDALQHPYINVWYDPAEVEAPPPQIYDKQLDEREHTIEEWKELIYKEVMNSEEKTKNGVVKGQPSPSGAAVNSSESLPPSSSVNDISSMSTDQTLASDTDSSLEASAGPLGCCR
# T17 sequence (Q9UPE1 whole entry): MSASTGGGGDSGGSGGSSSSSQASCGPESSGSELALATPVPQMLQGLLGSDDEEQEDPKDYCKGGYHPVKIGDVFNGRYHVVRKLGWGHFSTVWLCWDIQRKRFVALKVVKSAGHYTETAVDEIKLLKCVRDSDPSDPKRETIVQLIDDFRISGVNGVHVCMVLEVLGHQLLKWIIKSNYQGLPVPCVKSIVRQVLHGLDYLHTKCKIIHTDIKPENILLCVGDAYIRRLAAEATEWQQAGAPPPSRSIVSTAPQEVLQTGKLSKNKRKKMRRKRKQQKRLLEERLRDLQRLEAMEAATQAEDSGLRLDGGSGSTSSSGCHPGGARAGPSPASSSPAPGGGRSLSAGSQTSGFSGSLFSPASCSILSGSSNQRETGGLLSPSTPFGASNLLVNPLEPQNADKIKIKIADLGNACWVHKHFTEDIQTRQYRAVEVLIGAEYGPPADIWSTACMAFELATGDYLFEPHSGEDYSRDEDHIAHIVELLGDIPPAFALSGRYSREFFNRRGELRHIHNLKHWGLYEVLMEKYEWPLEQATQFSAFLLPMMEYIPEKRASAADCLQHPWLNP
# T27 sequence (Q02763 23-1124 Y897S): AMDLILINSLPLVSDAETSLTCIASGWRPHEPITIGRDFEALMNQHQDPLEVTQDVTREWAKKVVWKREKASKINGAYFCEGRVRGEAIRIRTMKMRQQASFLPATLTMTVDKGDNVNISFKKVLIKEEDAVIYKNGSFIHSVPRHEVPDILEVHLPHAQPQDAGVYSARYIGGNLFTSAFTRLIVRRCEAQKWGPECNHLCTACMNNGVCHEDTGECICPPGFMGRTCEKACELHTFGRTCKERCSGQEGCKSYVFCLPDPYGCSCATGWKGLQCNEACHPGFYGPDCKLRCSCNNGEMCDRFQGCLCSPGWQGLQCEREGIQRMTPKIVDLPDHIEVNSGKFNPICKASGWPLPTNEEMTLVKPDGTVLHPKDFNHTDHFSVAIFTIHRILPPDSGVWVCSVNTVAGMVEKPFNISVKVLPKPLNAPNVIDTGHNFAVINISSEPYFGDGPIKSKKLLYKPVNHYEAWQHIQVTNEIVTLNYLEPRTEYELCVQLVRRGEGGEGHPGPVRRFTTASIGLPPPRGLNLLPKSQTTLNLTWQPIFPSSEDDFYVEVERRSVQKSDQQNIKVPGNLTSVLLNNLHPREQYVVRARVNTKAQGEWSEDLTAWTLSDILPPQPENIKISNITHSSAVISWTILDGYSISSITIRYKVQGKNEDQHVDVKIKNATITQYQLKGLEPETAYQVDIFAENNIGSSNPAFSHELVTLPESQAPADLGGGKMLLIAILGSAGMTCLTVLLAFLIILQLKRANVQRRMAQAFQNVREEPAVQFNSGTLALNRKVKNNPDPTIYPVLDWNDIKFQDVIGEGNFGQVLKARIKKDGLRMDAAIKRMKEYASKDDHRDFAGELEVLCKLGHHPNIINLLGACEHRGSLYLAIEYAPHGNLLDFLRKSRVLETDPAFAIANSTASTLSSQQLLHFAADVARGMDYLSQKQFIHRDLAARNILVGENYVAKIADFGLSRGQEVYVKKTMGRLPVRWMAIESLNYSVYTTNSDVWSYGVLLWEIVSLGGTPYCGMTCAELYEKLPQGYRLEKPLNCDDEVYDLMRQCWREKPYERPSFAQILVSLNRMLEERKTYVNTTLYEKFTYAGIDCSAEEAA
# T14 sequence (O96013 whole entry): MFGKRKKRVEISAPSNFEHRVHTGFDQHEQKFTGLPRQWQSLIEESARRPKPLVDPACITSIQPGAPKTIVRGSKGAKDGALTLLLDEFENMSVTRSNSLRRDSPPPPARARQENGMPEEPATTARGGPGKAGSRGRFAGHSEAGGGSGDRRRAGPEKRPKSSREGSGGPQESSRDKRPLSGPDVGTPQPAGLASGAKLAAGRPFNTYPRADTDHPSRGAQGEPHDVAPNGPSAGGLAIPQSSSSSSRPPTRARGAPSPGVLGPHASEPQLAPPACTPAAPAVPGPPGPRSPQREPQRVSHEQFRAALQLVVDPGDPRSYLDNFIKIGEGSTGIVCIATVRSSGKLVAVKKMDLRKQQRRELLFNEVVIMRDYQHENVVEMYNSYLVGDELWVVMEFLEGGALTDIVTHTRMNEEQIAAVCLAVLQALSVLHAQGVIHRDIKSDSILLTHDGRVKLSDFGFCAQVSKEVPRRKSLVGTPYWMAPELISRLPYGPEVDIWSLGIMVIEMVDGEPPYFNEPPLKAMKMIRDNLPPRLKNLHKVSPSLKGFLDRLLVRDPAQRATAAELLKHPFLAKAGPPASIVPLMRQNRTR
# T37 sequence (P00533 25-1210): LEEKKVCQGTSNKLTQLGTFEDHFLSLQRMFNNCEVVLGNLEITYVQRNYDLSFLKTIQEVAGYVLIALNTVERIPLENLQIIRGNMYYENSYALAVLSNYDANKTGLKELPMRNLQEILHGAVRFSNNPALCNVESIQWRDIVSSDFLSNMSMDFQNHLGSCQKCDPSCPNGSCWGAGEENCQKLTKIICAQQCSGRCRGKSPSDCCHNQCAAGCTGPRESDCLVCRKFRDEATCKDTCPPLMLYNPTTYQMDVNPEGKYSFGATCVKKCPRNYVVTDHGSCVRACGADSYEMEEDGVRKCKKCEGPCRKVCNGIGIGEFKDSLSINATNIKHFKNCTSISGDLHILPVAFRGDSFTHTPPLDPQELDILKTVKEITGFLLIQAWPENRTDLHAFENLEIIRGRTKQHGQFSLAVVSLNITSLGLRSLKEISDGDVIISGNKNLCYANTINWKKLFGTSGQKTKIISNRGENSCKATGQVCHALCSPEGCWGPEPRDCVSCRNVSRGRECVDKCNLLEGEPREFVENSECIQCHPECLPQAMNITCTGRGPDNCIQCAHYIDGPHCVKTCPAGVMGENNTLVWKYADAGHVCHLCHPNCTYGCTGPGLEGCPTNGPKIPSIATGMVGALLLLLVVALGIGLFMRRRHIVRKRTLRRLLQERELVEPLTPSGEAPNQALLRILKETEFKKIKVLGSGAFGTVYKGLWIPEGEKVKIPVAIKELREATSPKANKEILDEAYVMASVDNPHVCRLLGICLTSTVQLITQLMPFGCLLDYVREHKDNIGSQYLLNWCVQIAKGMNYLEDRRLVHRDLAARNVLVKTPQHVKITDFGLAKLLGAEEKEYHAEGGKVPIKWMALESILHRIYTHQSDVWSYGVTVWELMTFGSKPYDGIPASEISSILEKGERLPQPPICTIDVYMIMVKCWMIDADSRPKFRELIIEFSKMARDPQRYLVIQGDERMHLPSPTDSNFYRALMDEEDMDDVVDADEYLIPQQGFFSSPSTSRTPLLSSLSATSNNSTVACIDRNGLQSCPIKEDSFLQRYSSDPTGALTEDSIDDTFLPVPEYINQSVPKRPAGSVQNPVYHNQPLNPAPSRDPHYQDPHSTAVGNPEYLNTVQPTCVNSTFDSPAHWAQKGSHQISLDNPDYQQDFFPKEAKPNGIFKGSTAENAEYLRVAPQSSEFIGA
smiles,measurement,setting,value
NS(=O)(=O)c1ccc(Nc2ncc3cc4n(c3n2)C2(CCCCC2)C(=O)NN4)cc1 [INX-315],inhibition at 0.1 µM,CDK17/cyclin Y,20%
same,inhibition at 0.1 µM,PLK3,-2%
same,inhibition at 0.1 µM,ABL1 F317L,3%
same,inhibition at 0.1 µM,MAPK12 (p38 gamma),9%
same,inhibition at 0.1 µM,SGKL (SGK3),6%
same,inhibition at 0.1 µM,TNK1,14%
same,inhibition at 0.1 µM,PKN1 (PRK1),7%
same,inhibition at 0.1 µM,CSNK2A2 (CK2 alpha 2),4%
same,inhibition at 0.1 µM,SRC,8%
same,inhibition at 0.1 µM,CDK18/cyclin Y,9%
same,inhibition at 0.1 µM,NEK2,3%
same,inhibition at 0.1 µM,MAPKAPK3,8%
same,inhibition at 0.1 µM,EGFR (ErbB1) L858R,1%
same,inhibition at 0.1 µM,PAK4,7%
same,inhibition at 0.1 µM,SRPK1,7%
same,inhibition at 0.1 µM,CLK2,8%
same,inhibition at 0.1 µM,STK23 (MSSK1),6%
same,inhibition at 0.1 µM,AURKA (Aurora A),38%
same,inhibition at 0.1 µM,MAPK8 (JNK1),6%
same,inhibition at 0.1 µM,GRK4,31%
same,inhibition at 0.1 µM,TYK2,89%
same,inhibition at 0.1 µM,MAP2K1 (MEK1),15%
same,inhibition at 0.1 µM,STK24 (MST3),11%
same,inhibition at 0.1 µM,LCK,19%
same,inhibition at 0.1 µM,PRKG2 (PKG2),-1%
same,inhibition at 0.1 µM,PAK2 (PAK65),5%
same,inhibition at 0.1 µM,TEK (TIE2) Y897S,6%
same,inhibition at 0.1 µM,DCAMKL1 (DCLK1),9%
same,inhibition at 0.1 µM,IKBKB (IKK beta),4%
same,inhibition at 0.1 µM,GRK5,24%
same,inhibition at 0.1 µM,EPHA1,22%
same,inhibition at 0.1 µM,PDGFRA T674I,-1%
same,inhibition at 0.1 µM,MAPK10 (JNK3),11%
same,inhibition at 0.1 µM,HCK,10%
same,inhibition at 0.1 µM,MET (cMet),6%
same,inhibition at 0.1 µM,SBK1,5%
same,inhibition at 0.1 µM,EGFR (ErbB1),4%
same,inhibition at 0.1 µM,MELK,10%
